Results from patent US20240366539A1, “METHODS FOR TREATING AUTISM SPECTRUM DISORDERS” (INSTITUT NATIONAL DE LA SANTÉ ET DE LA RECHERCHE MÉDICALE, priority 2021, published 2024).

Tests used:
[1] = tested on: rodent models of ASD; details: preclinical studies; cited from earlier work
[2] = tested on: Oprm1^−/− mice; assay: Three-chamber social preference test; type: in vivo, mouse
Procedure: (§1) Mice were treated with vehicle (NaCl 0.9%; ip, 10 or 20 ml/kg), NaBr (Sigma-Aldrich, Saint-Quentin Fallavier, France) administered either chronically (once a day, 10, 30, 70, 125, 250 and 500 mg/kg; i.p. or per os, in a volume of 20 ml/kg—except for combination with VU0155041: […]) or acutely (250 mg/kg, 20 ml/kg), KBr (Sigma-Aldrich, Saint-Quentin Fallavier, France; 145 mg/kg; i.p., 20 ml/kg), bumetanide (R&D systems, Minneapolis, USA, 0.5 and 2 mg/kg; i.p., 20 ml/kg) or VU0155041 (Cayman Chemicals, Ann Arbor, USA, once a day, i.p., 1 mg/kg, 10 ml/kg). […] When treatment was given chronically, behavioral testing started 8 days after beginning of daily administration. Treatment was maintained for 8 to 18 consecutive days (see timelines in FIGS. 1 and 4), allowing thorough behavioral phenotyping. On testing days, or when treatment was given acutely, drugs (or vehicle) were administered 30 min before behavioral assays.
Three-chamber social preference test. The test apparatus consisted of a transparent acrylic box (exterior walls blinded with black plastic film); partitions divided the box into three equal chambers (40×20×22.5 cm). Two sliding doors (8×5 cm) allowed transitions between chambers. Cylindrical wire cages (18×9 cm, 0.5 cm diameter-rods spaced 1 cm apart) were used to contain the mouse interactor and object (soft-toy mouse). The test was performed in low-light conditions (15 lx) to minor anxiety. Stimulus wild-type mice were habituated to confinement in wire cages for 2 days before the test (20 min/day). On testing day, the experimental animal was introduced to the middle chamber and allowed to explore the whole apparatus for a 10-min habituation phase (wire cages empty) after the sliding doors were raised. The experimental mouse was then confined back in the middle-chamber while the experimenter introduced an unfamiliar wild type age and sex-matched animal into a wire cage in one of the side-chambers and a soft toy mouse (8×10 cm) in the second wire cage as a control for novelty. Then the experimental mouse was allowed to explore the apparatus for a 10-min interaction phase. The time spent in each chamber, the time spent in nose contact with each wire cage (empty: habituation; containing a mouse or a toy: interaction), as well as the number of these nose contacts were scored a posteriori on video recordings using an ethological keyboard (Labwatcher®, View Point, Lyon, France) by trained experimenters. […] The relative position of stimulus mice (versus toy) was counterbalanced between groups.

[3] = tested on: Oprm1^−/− mice; assay: Direct social interaction test; type: in vivo, mouse; details: for social interaction in wild-type controls: Oprm1+/+ mice
Procedure: as §1
When assessing effects of chronic administration, experiments were performed successively (timelines in FIGS. 1 and 4) (51, 60). Testing order was chosen to minimize the incidence of anxiety on later assays. Direct social interaction and novelty suppressed feeding were performed in 4 equal square arenas (open fields, 50×50 cm) separated by 35 cm-high opaque grey Plexiglas walls over a white Plexiglas platform (View Point, Lyon, France). Stimulus mice used for the three-chamber test were 8-14-week-old grouped-housed male or female wild-type mice, socially naive to the experimental animals.
Direct social interaction test. On testing day, a pair of unfamiliar mice (not cage mates, age-, sex- and treatment-matched) was introduced in each arena for 10 min (15 lx). Each arena received a black plastic floor (transparent to infrared). […] The mean duration of nose and paw contacts was calculated from previous data (61-63).

[4] = tested on: Oprm1^−/− mice; assay: Y-maze exploration; type: in vivo, mouse
Procedure: as §1
Y-maze exploration. Spontaneous alternation behavior was used to assess perseverative behavior (65-67). Each Y-maze consisted of three connected Plexiglas arms (15×15×17 cm) covered with distinct wall patterns (15 lx). Floors were covered with lightly sprayed fresh sawdust to limit anxiety. Each mouse was placed at the center of a maze and allowed to freely explore this environment for 5 min. The pattern of entries into each arm was quoted on video-recordings. Spontaneous alternations (SPA), i.e. successive entries into each arm forming overlapping triplet sets, alternate arm returns (AAR) and same arm returns (SAR) were scored, and the percentage of SPA, AAR and SAR was calculated as following: total/(total arm entries−2)*100.

[5] = tested on: Oprm1^−/− mice; assay: Tail-immersion test; type: in vivo, mouse; details: 50° C., NaBr 70 mg/kg, VU0155041 1 mg/kg, alone or combined, chronic
Procedure: as §1
Tail-immersion test. Nociceptive thresholds were assessed by immersing the tail of the mice (5 cm from the tip) successively into water baths at 48° C., 50° C. and 52° C. The latency to withdraw the tail was measured at each temperature, with a cutoff of 10 s.

[6] = dose of KBr equivalent to 250 mg/kg NaBr; pilot experiments
From the text: (§2) Also, we assessed the behavioral effects of chronic administration of another bromide salt, KBr.

[7] = tested on: Oprm1^−/− mice; assay: Behavioral tests of social, repetitive and anxious behavior (oral NaBr, KBr; data not shown); details: mouse, in vivo
Procedure: as §1, §2

[8] = tested on: Oprm1^−/− mice; assay: Marble-burying; type: in vivo, mouse; details: Oprm1−/− mice; chronic NaBr 10-500 mg/kg or bumetanide 0.5 and 2 mg/kg
Procedure: as §1
Marble-burying. Marble burying was used as a measure of perseverative behavior (68). Mice were introduced individually in transparent cages (21×11×17 cm) containing 20 glass marbles (diameter: 1.5 cm) evenly spaced on 4-cm deep fresh sawdust. To prevent escapes, each cage was covered with a filtering lid. Light intensity in the room was set at 40 lux. The animals were removed from the cages after 15 min, and the number of marbles buried more than half in sawdust was quoted.

[9] = tested on: patients; details: cited from earlier work
[10] = tested on: Oprm1^−/− mice; assay: Novelty-suppressed feeding; type: in vivo, mouse; details: chronic NaBr (since the lowest dose tested) or bumetanide
Procedure: as §1
Novelty-suppressed feeding. Novelty-suppressed feeding (NSF) was measured in 24-hr food-deprived mice, isolated in a standard housing cage for 30 min before individual testing. Three pellets of ordinary lab chow were placed on a white tissue in the center of each arena, lit at 60 lx. Each mouse was placed in a corner of an arena and allowed to explore for a maximum of 15 min. Latency to feed was measured as the time necessary to bite a food pellet. Immediately after an eating event, the mouse was transferred back to home cage (free from cage-mates) and allowed to feed on lab chow for 5 min. Food consumption in the home cage was measured.

[11] = tested on: Oprm1^−/− mice; assay: Motor stereotypies; type: in vivo, mouse
Procedure: as §1
Motor stereotypies. To detect motor stereotypies in mutant versus wild-type animals, mice were individually placed in clear standard home cages (21×11×17 cm) filled with 3-cm deep fresh sawdust for 10 min (64). Light intensity was set at 30 lux. Trained experimenters scored numbers of head shakes, as well as rearing, burying, grooming, circling episodes and total time spent burying by direct observation.

[12] = Oprm1−/− mice, NaBr 70 mg/kg, VU0155041 1 mg/kg, alone or combined, once daily, chronic
[13] = chronic NaBr 10-500 mg/kg or bumetanide 0.5 and 2 mg/kg
[14] = chronic NaBr (since lowest dose, 10 mg/kg) or bumetanide 0.5 and 2 mg/kg
[15] = Oprm1−/− mice, chronic once daily, NaBr 10-500 mg/kg (effect from 125 mg/kg) or bumetanide 0.5 and 2 mg/kg, D9
[16] = Oprm1−/− mice, one week after cessation of chronic treatment (NaBr over 70 mg/kg, highest doses; bumetanide depending on the dose)
[17] = Oprm1−/− mice, chronic NaBr 10-500 mg/kg or bumetanide 0.5 and 2 mg/kg

For `NC[C@H](CC(=O)O)c1ccc(Cl)cc1` [arbaclofen], the “autistic-like behaviors / phenotype in animal models” value [1] is given as “improve autistic-like behaviors in animal models”.

In the case of `O=C(Nc1cc(Cl)cc(Cl)c1)C1CCCC[C@H]1C(=O)O` (stereo partly shown) [VU0155041], the “frequency of nose contacts with the mouse versus the toy” value ([2]; NaBr 70 mg/kg or VU0155041 1 mg/kg, once daily, chronic) is reported as “sufficient to restore more frequent nose contacts with the mouse versus the toy”, the “duration of nose contacts with the mouse versus the toy” value ([2]; NaBr 70 mg/kg, VU0155041 1 mg/kg, alone or combined, once daily, chronic) is reported as “increased the duration of nose contacts with the mouse to that of the toy” and the “duration of nose contacts” value [3, 12] is reported as “partially rescued the duration of their nose contacts”. The “grooming episodes after social contact” value [3, 12] was “suppressed grooming episodes after a social contact”, the “effect in the social interaction test, pilot experiment” value ([3]; liminal dose of VU0155041 (1 mg/kg i.p.)) was “no detectable effect in the social interaction test” and the “perseverative same arm returns” value ([4]; chronic VU0155041 1 mg/kg) was “sufficient to suppress perseverative same arm returns”. For the same compound, the “flicking latency (nociceptive threshold)” value [5] was “ineffective”.

For `[Br-].[K+]` [KBr, potassium bromide], the toxicity [6] was “toxic” and the “social, repetitive and anxious behavior, compared with NaBr treatment” value [7] was “fully replicated, if not exceeded, by KBr”.

In the case of `CCCCNc1cc(C(=O)O)cc(S(N)(=O)=O)c1Oc1ccccc1` [bumetanide], the excessive marble burying [8] is reported as “failed to suppress excessive marble burying in Oprm1^−/− mice”, the social preference ratio [2, 13] is reported as “significant but partial recovery of social preference ratio” and the “duration of nose contacts with the mouse versus the toy” value [2, 14] is reported as “dose-dependently increased the duration of nose contacts with the mouse, but failed to reduce the duration of nose contacts with the toy”. For the same compound, the “number of nose contacts with the mouse versus the toy” value [2, 14] was “at the lowest dose restored a preference for making more frequent nose contacts with the mouse over the toy”, the “social interaction in wild-type controls” value ([3]; chronic once daily, NaBr 10-500 mg/kg or bumetanide 0.5 and 2 mg/kg) was “showed deleterious effects on social interaction parameters in WT controls” and the “social interaction in wild-type controls” value ([3]; chronic once daily, NaBr 10-500 mg/kg or bumetanide 0.5 and 2 mg/kg, listed as Bumetanide) was “at the highest dose, it impaired social interaction in wild-type controls”. For the same compound, the social interaction deficit ([3]; Oprm1−/− mice, chronic once daily i.p., NaBr 10-500 mg/kg or bumetanide 0.5 and 2 mg/kg, D9) was “had only partial effects”, the “number of nose contacts” value ([3]; Oprm1−/− mice, chronic once daily, NaBr 10-500 mg/kg (effect from 125 mg/kg) or bumetanide 0.5 and 2 mg/kg (effect at low dose), D9) was “increased the number of nose contacts” and the “mean duration of nose contacts” value [3, 15] was “failed to increase significantly the duration of nose contacts”. For the same compound, the “mean duration of paw contacts” value [3, 15] was “failed to increase significantly”, the “number of paw contacts” value [3, 15] was “failed to increase significantly” and the “grooming after social contact” value ([3]; Oprm1−/− mice, chronic once daily, NaBr 10-500 mg/kg or bumetanide 0.5 and 2 mg/kg, D9) was “suppressed grooming episodes, notably those occurring after social contact, since the lowest dose tested”. For the same compound, the “duration of nose contacts” value [3, 16] was “beneficial effects of bumetanide were still detectable”, the “grooming after social contact” value [3, 16] was “still detectable” and the “number of following episodes” value ([3]; chronic once daily, NaBr 10-500 mg/kg (both mouse lines) or bumetanide (at low dose), D9) was “increased”. For the same compound, the “autistic behavior in small cohorts of patients” value [9] was “relieve autistic behavior in small cohorts of patients”, the “clinical benefit in a larger clinical trial” value [9] was “failed to be confirmed in a larger clinical trial, except for a reduction of repetitive behavior” and the “autistic-like behaviors / phenotype in animal models” value [1] was “improve autistic-like phenotype in rodent models of ASD”. For the same compound, the “perseverative same arm returns” value [4, 13] was “globally failed to suppress those”, the latency to eat ([10]; Oprm1−/− mice) was “had no detectable effect on either latency to eat” and the food intake ([10]; both mouse lines) was “had no detectable effect”. The “number of head shakes” value [11, 17] was “suppressed circling and head shakes in mutant mice”, the stereotypic circling episodes [11, 17] was “suppressed circling and head shakes in mutant mice” and the “number of rearing episodes” value ([11]; both mouse lines (Oprm1−/− and Oprm1+/+), chronic NaBr or bumetanide) was “reduced the number of rearing episodes in both mouse lines”.
